Experimental findings from a polymer gas permeability compilation are described below.

In the case of `*/C(C)=C(/*)[Si](C)(C)CCCCCCCC` (repeat unit), the CH4 permeability stood at 13 Barrer, the CO2 permeability was determined as 100 Barrer, the H2 permeability came to 47 Barrer and the N2 permeability came to 19 Barrer. The same molecule showed an O2 permeability of 23 Barrer.
The corresponding values for `*C(=C(*)c1ccc2c(c1)C1(CC1)c1ccccc1-2)c1ccc([Si](C)(C)C)cc1` (repeat unit) are 1500 Barrer, 4100 Barrer, 1900 Barrer, 540 Barrer and 1000 Barrer.
Taken in the same sequence, the figures for `*C(=C(*)c1ccc2c(c1)C1(CC1)c1ccccc1-2)c1ccccc1` (repeat unit) were 810 Barrer, 3200 Barrer, 1400 Barrer, 400 Barrer and 660 Barrer.
With `*c1ccc(Oc2ccc(-c3ccc(-c4ccc(-c5ccc(Oc6ccc(N7C(=O)c8ccc(C(c9ccc%10c(c9)C(=O)N(*)C%10=O)(C(F)(F)F)C(F)(F)F)cc8C7=O)cc6)c(C(F)(F)F)c5)cc4)cc3)cc2C(F)(F)F)cc1` (repeat unit), the CH4 permeability worked out at 1.51 Barrer, the CO2 permeability stood at 36.6 Barrer, the N2 permeability worked out at 3.11 Barrer and the O2 permeability was determined as 17.1 Barrer.
Take `*c1ccc(Oc2ccc(-c3ccc(-c4ccc(Oc5ccc(N6C(=O)c7ccc(C(c8ccc9c(c8)C(=O)N(*)C9=O)(C(F)(F)F)C(F)(F)F)cc7C6=O)cc5)c(C(F)(F)F)c4)cc3)cc2C(F)(F)F)cc1` (repeat unit): the CH4 permeability stood at 1.19 Barrer, the CO2 permeability is 33.1 Barrer, the N2 permeability is 2.87 Barrer and the O2 permeability turned out to be 15.2 Barrer.
Taken in the same sequence, the figures for `*c1ccc(Oc2ccc(-c3ccc(-c4ccc(Oc5ccc(N6C(=O)c7ccc(C(c8ccc9c(c8)C(=O)N(*)C9=O)(C(F)(F)F)C(F)(F)F)cc7C6=O)cc5)c(C(F)(F)F)c4)s3)cc2C(F)(F)F)cc1` (repeat unit) were 1.68 Barrer, 45.3 Barrer, 1.78 Barrer and 11.7 Barrer.
Taken in the same sequence, the figures for `*c1ccc(Oc2ccc(-c3cccc(-c4ccc(Oc5ccc(N6C(=O)c7ccc(C(c8ccc9c(c8)C(=O)N(*)C9=O)(C(F)(F)F)C(F)(F)F)cc7C6=O)cc5)c(C(F)(F)F)c4)n3)cc2C(F)(F)F)cc1` (repeat unit) were 1.95 Barrer, 51.9 Barrer, 1.91 Barrer and 12.2 Barrer.
Regarding `*c1ccc(Oc2ccc(-n3c(=O)c4cc5sc6cc7c(=O)n(*)c(=O)c7cc6sc5cc4c3=O)cc2)cc1` (repeat unit), the CH4 permeability was 0.082 Barrer, the CO2 permeability stood at 4 Barrer, the H2 permeability is 11 Barrer and the N2 permeability is 0.11 Barrer. In addition, the O2 permeability was 0.74 Barrer.
The corresponding values for `*c1ccc(Oc2ccc(C(*)(c3ccccc3)C(F)(F)F)cc2)cc1` (repeat unit) are 0.65 Barrer, 17 Barrer, 28 Barrer, 0.69 Barrer and 3.5 Barrer.
For `*c1ccc(Oc2ccc(C(C)(C)c3ccc(Oc4ccc(N5C(=O)c6ccc(-c7ccc8c(c7)C(=O)N(*)C8=O)cc6C5=O)cc4)cc3)cc2)cc1` (repeat unit), the CH4 permeability was 0.0846 Barrer, the CO2 permeability was found to be 2.8 Barrer, the N2 permeability is 0.0938 Barrer and the O2 permeability stood at 0.596 Barrer.
`*c1ccc(Oc2ccc(C(c3ccc(Oc4ccc(-n5c(=O)c6cc7c(=O)n(*)c(=O)c7cc6c5=O)cc4C(F)(F)F)cc3)(C(F)(F)F)C(F)(F)F)cc2)c(C(F)(F)F)c1` (repeat unit) registered a CH4 permeability of 0.937 Barrer, a CO2 permeability of 24.6 Barrer, an H2 permeability of 50.4 Barrer and an N2 permeability of 1.5 Barrer. In addition, the O2 permeability was 7.06 Barrer.
For `*c1ccc(Oc2ccc(C(c3ccc(Oc4ccc(N5C(=O)c6ccc(-c7ccc8c(c7)C(=O)N(*)C8=O)cc6C5=O)cc4C(F)(F)F)cc3)(C(F)(F)F)C(F)(F)F)cc2)c(C(F)(F)F)c1` (repeat unit), the CH4 permeability came out at 0.279 Barrer, the CO2 permeability worked out at 9.15 Barrer, the H2 permeability was found to be 30.6 Barrer and the N2 permeability amounted to 0.563 Barrer. This molecule yielded an O2 permeability of 3.11 Barrer.
The corresponding values for `*c1ccc(Oc2ccc(C(c3ccc(Oc4ccc(N5C(=O)c6ccc(C(c7ccc8c(c7)C(=O)N(*)C8=O)(C(F)(F)F)C(F)(F)F)cc6C5=O)cc4)cc3)(C(F)(F)F)C(F)(F)F)cc2)cc1` (repeat unit) are 0.515 Barrer, 19 Barrer, 46.7 Barrer, 0.982 Barrer and 5.27 Barrer.
The corresponding values for `*c1ccc(Oc2ccc(C(c3ccc(Oc4ccc(N5C(=O)c6ccc(C(c7ccc8c(c7)C(=O)N(*)C8=O)(C(F)(F)F)C(F)(F)F)cc6C5=O)cc4C(F)(F)F)cc3)(C(F)(F)F)C(F)(F)F)cc2)c(C(F)(F)F)c1` (repeat unit) are 0.703 Barrer, 22.8 Barrer, 55.4 Barrer, 1.3 Barrer and 6.5 Barrer.
The corresponding values for `*c1ccc(Oc2ccc(C3(c4ccc(Oc5ccc(N6C(=O)c7ccc(C(c8ccc9c(c8)C(=O)N(*)C9=O)(C(F)(F)F)C(F)(F)F)cc7C6=O)c(C)c5)cc4)c4ccccc4-c4ccccc43)cc2)cc1C` (repeat unit) are 0.34 Barrer, 11.7 Barrer, 47.3 Barrer, 0.73 Barrer and 3.62 Barrer.
Molecule `*c1ccc(Oc2ccc(C3(c4ccc(Oc5ccc(N6C(=O)c7ccc(C(c8ccc9c(c8)C(=O)N(*)C9=O)(C(F)(F)F)C(F)(F)F)cc7C6=O)cc5)cc4)OC(=O)c4ccccc43)cc2)cc1` (repeat unit) displayed a CH4 permeability of 0.455 Barrer, a CO2 permeability of 16.5 Barrer, an N2 permeability of 0.965 Barrer and an O2 permeability of 4.83 Barrer.
Taken in the same sequence, the figures for `*c1ccc(Oc2ccc(N3C(=O)c4cc(Oc5ccc(C)cc5)c(-c5cc6c(cc5Oc5ccc(C)cc5)C(=O)N(*)C6=O)cc4C3=O)cc2)cc1` (repeat unit) were 1.45 Barrer, 44 Barrer, 1.25 Barrer and 4.99 Barrer.
The molecule `*c1ccc(Oc2ccc(N3C(=O)c4cc5c(cc4C3=O)S(=O)(=O)c3cc4c(cc3S5(=O)=O)C(=O)N(*)C4=O)cc2)cc1` (repeat unit) had a CH4 permeability of 0.18 Barrer, a CO2 permeability of 9.6 Barrer, an H2 permeability of 19 Barrer and an N2 permeability of 0.27 Barrer. The O2 permeability amounted to 1.6 Barrer.
The corresponding values for `*c1ccc(Oc2ccc(N3C(=O)c4ccc(C(c5ccc6c(c5)C(=O)N(*)C6=O)(C(F)(F)F)C(F)(F)F)cc4C3=O)cc2)cc1` (repeat unit) are 0.407 Barrer, 20.6 Barrer, 44 Barrer, 0.797 Barrer and 4.21 Barrer.
With `*c1ccc(Oc2ccc(Oc3ccc(*)cc3)c3c2C2c4ccccc4C3c3ccccc32)cc1` (repeat unit), the CH4 permeability turned out to be 0.21 Barrer, the CO2 permeability amounted to 13.5 Barrer, the N2 permeability worked out at 0.58 Barrer and the O2 permeability came to 3.4 Barrer.
In turn, `*c1ccc(Oc2ccc(S(=O)(=O)c3ccc(Oc4ccc(S(*)(=O)=O)cc4)cc3)cc2)cc1` (repeat unit) registered a CH4 permeability of 0.13 Barrer, a CO2 permeability of 2.88 Barrer, an H2 permeability of 8.35 Barrer and an N2 permeability of 0.13 Barrer. Besides, the O2 permeability turned out to be 0.83 Barrer.
Regarding `*c1ccc(Oc2ccc3ccccc3c2-c2c(Oc3ccc(N4C(=O)c5ccc(C(c6ccc7c(c6)C(=O)N(*)C7=O)(C(F)(F)F)C(F)(F)F)cc5C4=O)cc3C(F)(F)F)ccc3ccccc23)c(C(F)(F)F)c1` (repeat unit), the CH4 permeability is 0.41 Barrer, the CO2 permeability was found to be 25.9 Barrer, the H2 permeability turned out to be 36.8 Barrer and the N2 permeability came to 0.78 Barrer. The molecule also gave an O2 permeability of 4.89 Barrer.
The molecule `*c1ccc(Oc2ccc3ccccc3c2-c2c(Oc3ccc(N4C(=O)c5ccc(C(c6ccc7c(c6)C(=O)N(*)C7=O)(C(F)(F)F)C(F)(F)F)cc5C4=O)cc3C)ccc3ccccc23)c(C)c1` (repeat unit) came in with a CH4 permeability of 0.28 Barrer, a CO2 permeability of 18.4 Barrer, an H2 permeability of 26.2 Barrer and an N2 permeability of 0.53 Barrer. The molecule also came in with an O2 permeability of 3.35 Barrer.
Molecule `*c1ccc(Oc2cccc(-n3c(=O)c4cc5c(=O)n(*)c(=O)c5cc4c3=O)c2)cc1` (repeat unit) came in with a CH4 permeability of 0.0258 Barrer, a CO2 permeability of 1.15 Barrer, an H2 permeability of 5.92 Barrer and an N2 permeability of 0.0454 Barrer. In addition, the O2 permeability was 0.31 Barrer.
The corresponding values for `*c1ccc(S(=O)(=O)c2ccc(N3C(=O)c4ccc(-c5ccc6c(c5)C(=O)N(*)C6=O)cc4C3=O)cc2)cc1` (repeat unit) are 0.0625 Barrer, 2.16 Barrer, 11.3 Barrer, 0.0499 Barrer and 0.348 Barrer.
As to `*c1ccc(Sc2ccc(N3C(=O)c4ccc(-c5ccc6c(c5)C(=O)N(*)C6=O)cc4C3=O)cc2)cc1` (repeat unit), the CH4 permeability stood at 0.0164 Barrer, the CO2 permeability came to 0.774 Barrer and the N2 permeability was 0.022 Barrer.
As to `*c1ccc(Sc2ccc(Sc3ccc(Sc4ccc(N5C(=O)c6ccc(C(c7ccc8c(c7)C(=O)N(*)C8=O)(C(F)(F)F)C(F)(F)F)cc6C5=O)cc4)cc3)cc2)cc1` (repeat unit), the CH4 permeability stood at 0.22 Barrer, the CO2 permeability was 8.37 Barrer, the N2 permeability amounted to 0.37 Barrer and the O2 permeability stood at 1.72 Barrer.
Regarding `*c1ccc2c(-c3c(O)ccc4cc(N5C(=O)c6ccc(C(c7ccc8c(c7)C(=O)N(*)C8=O)(C(F)(F)F)C(F)(F)F)cc6C5=O)ccc34)c(O)ccc2c1` (repeat unit), the CH4 permeability worked out at 0.09 Barrer, the CO2 permeability was found to be 4.32 Barrer, the H2 permeability was 5.95 Barrer and the N2 permeability stood at 0.14 Barrer. Besides, the O2 permeability worked out at 0.98 Barrer.
